Molecules are shown by their SMILES. Values after ≈ are worked out from the molar mass of the structure shown. Values joined by “and” are separate entries in the source; they are usually repeats but may differ in a detail not shown here. Equal values may be shown once.

The MIC is the lowest concentration found to suppress growth. Low values mean a more susceptible organism, high ones a less susceptible organism.

Experiment in all cases: ≥ marks a high value that may be exact or a test limit, other limits are often not marked, values filed in µg/mL are converted to µM
Experiment [1] concerns Staphylococcus epidermidis ATCC 12228.
The subject of experiment [2] is Escherichia coli UB1005.
Experiment [3] concerns Enterococcus faecalis ATCC 29212.
Experiment [4] relates to Salmonella enterica subsp. enterica serovar Typhimurium C77-31.
The subject of experiment [5] is Escherichia coli ATCC 25922.
Experiment [6] concerns Staphylococcus aureus ATCC 33591.
The subject of experiment [7] is Staphylococcus aureus ATCC 29213.
For experiment [8], the system named is Bacillus subtilis.
The subject of experiment [9] is Staphylococcus aureus ATCC 25923.
Experiment [10] deals with Escherichia coli.
In experiment [11] the test system is Streptococcus pyogenes ATCC 19615.
In experiment [12] the test system is Pseudomonas aeruginosa ATCC 27853.
The subject of experiment [13] is Salmonella enterica subsp. enterica serovar Typhimurium ATCC 14028.
For experiment [14], the system named is Klebsiella pneumoniae ATCC 13883.
For experiment [15], the system named is Candida albicans ATCC 90028.
For experiment [16], the system named is Staphylococcus aureus NCTC 8325.
The subject of experiment [17] is Staphylococcus aureus MR.
Experiment [18] deals with Acinetobacter baumannii.
In experiment [19] the test system is Acinetobacter baumannii ATCC 19606.

On to `CC[C@H](C)[C@H](NC(=O)[C@H](CCCCN)NC(=O)[C@H](Cc1c[nH]c2ccccc12)NC(=O)[C@H](CC(C)C)NC(=O)[C@H](CCCN=C(N)N)NC(=O)[C@H](CCCCN)NC(=O)[C@H](CCCN=C(N)N)NC(=O)[C@@H](NC(=O)[C@H](CCCCN)NC(=O)[C@H](Cc1c[nH]c2ccccc12)NC(=O)[C@H](CCCN=C(N)N)NC(=O)[C@H](CC(C)C)NC(=O)[C@H](CCCN=C(N)N)NC(=O)[C@H](CCCN=C(N)N)NC(=O)[C@H](Cc1ccccc1)NC(=O)[C@@H](N)CCCN=C(N)N)[C@@H](C)O)C(N)=O` [RFRRLRWKTRKRLWKI], for which the MIC in experiment [1] amounted to 32 µM (≈ 73.6 µg/mL); in [2] it was 16 µM (≈ 36.8 µg/mL); in experiment [3], 8 µM (≈ 18.4 µg/mL); in experiment [4] it was 16 µM (≈ 36.8 µg/mL).

`CC[C@H](C)[C@H](NC(=O)[C@H](CCC(N)=O)NC(=O)[C@H](CC(C)C)NC(=O)[C@H](CCC(N)=O)NC(=O)[C@@H](NC(=O)[C@H](CCCN=C(N)N)NC(=O)[C@H](Cc1ccccc1)NC(=O)[C@H](Cc1c[nH]c2ccccc12)NC(=O)[C@@H](N)CCCN=C(N)N)[C@@H](C)CC)C(=O)N[C@@H](CCCN=C(N)N)C(=O)N[C@@H](CCCN=C(N)N)C(=O)N[C@@H](Cc1c[nH]c2ccccc12)C(=O)N[C@@H](CCCN=C(N)N)C(=O)N[C@@H](CC(N)=O)C(=O)N[C@@H](CCCN=C(N)N)C(=O)N[C@@H](CCCN=C(N)N)C(N)=O` [RWFRIQLQIRRWRNRR]: the minimal inhibitory concentration (MIC) in experiment [5] and in experiment [6] was 16 µM (≈ 37.4 µg/mL) throughout.

As for `CC[C@H](C)[C@H](NC(=O)[C@H](CCCCN)NC(=O)[C@H](CCCCN)NC(=O)[C@H](CC(C)C)NC(=O)[C@H](CCCN=C(N)N)NC(=O)[C@@H](NC(=O)[C@H](CCCN=C(N)N)NC(=O)[C@@H](NC(=O)[C@H](CCCCN)NC(=O)[C@@H](NC(=O)[C@H](CCCN=C(N)N)NC(=O)[C@H](CC(C)C)NC(=O)[C@H](CCCN=C(N)N)NC(=O)[C@H](CCCN=C(N)N)NC(=O)[C@H](Cc1ccccc1)NC(=O)[C@@H](N)CCCN=C(N)N)[C@@H](C)CC)[C@@H](C)O)[C@@H](C)CC)C(N)=O` [RFRRLRIKTRIRLKKI], the MIC in [1] was 16 µM (≈ 34.4 µg/mL); in experiment [7], 64 µM and > 32 µM; in experiment [2] it was 16 µM (≈ 34.4 µg/mL); in experiment [3], 16 µM (≈ 34.4 µg/mL); in experiment [4], 16 µM (≈ 34.4 µg/mL); in experiment [5], 8 µM and > 4 µM.

As for `CC[C@H](C)[C@H](NC(=O)CNC(=O)[C@H](CCC(N)=O)NC(=O)[C@H](CC(C)C)NC(=O)[C@H](CC(N)=O)NC(=O)[C@H](CC(C)C)NC(=O)[C@H](Cc1ccccc1)NC(=O)CNC(=O)[C@H](Cc1cnc[nH]1)NC(=O)[C@H](CCCCN)NC(=O)[C@@H](N)CCCN=C(N)N)C(=O)N[C@@H](Cc1ccccc1)C(=O)NCC(=O)N[C@@H](CC(=O)O)C(=O)N[C@@H](Cc1ccc(O)cc1)C(=O)N[C@@H](Cc1ccc(O)cc1)C(=O)N[C@@H](Cc1cnc[nH]1)C(=O)N[C@@H](Cc1ccccc1)C(=O)N[C@@H](Cc1c[nH]c2ccccc12)C(=O)N[C@@H](Cc1cnc[nH]1)C(=O)N[C@@H](CCCN=C(N)N)C(=O)NCC(=O)N[C@H](C(=O)O)C(C)C` [RKHGFLNLQGIFGDYYHFWHRGV], the MIC in [8] is at least 100 µM; in experiment [9], above 100 µM; in experiment [10], 4 µM (≈ 11.4 µg/mL); in experiment [11] it was at least 100 µM; in [3], above 100 µM; in [12], above 100 µM. The MIC in experiment [13] was above 100 µM; in experiment [14], at least 100 µM.

Turning to `CC[C@H](C)[C@H](NC(=O)[C@H](CC(C)C)NC(=O)[C@H](CCCCN)NC(=O)[C@H](CO)NC(=O)[C@@H](NC(=O)[C@H](C)NC(=O)[C@H](CCCCN)NC(=O)[C@@H](NC(=O)[C@H](C)NC(=O)[C@H](Cc1cnc[nH]1)NC(=O)[C@@H]1CCCN1C(=O)[C@@H](NC(=O)[C@H](CC(C)C)NC(=O)[C@@H]1CCCN1C(=O)CNC(=O)[C@@H](NC(=O)[C@H](Cc1ccc(O)cc1)NC(=O)[C@H](CCCCN)NC(=O)[C@H](CCSC)NC(=O)[C@H](Cc1ccccc1)NC(=O)CN)[C@@H](C)CC)[C@@H](C)CC)C(C)C)[C@@H](C)CC)C(=O)O` [GFMKYIGPLIPHAVKAISKLI], the minimum inhibitory concentration (MIC) in [15] was at least 100 µM; in experiment [5] it was 25 µM (≈ 57.4 µg/mL); in [16], at least 50 µM.

As for `CC[C@H](C)[C@H](NC(=O)[C@H](C)NC(=O)[C@@H]1CCCN1C(=O)[C@H](CC(C)C)NC(=O)[C@@H](N)Cc1ccccc1)C(=O)N[C@H](C(=O)NCC(=O)N[C@@H](C)C(=O)N[C@@H](C)C(=O)N[C@@H](C)C(=O)N[C@@H](CCCCN)C(=O)N[C@@H](Cc1ccccc1)C(=O)N[C@@H](CC(C)C)C(=O)N1CCC[C@H]1C(=O)N[C@@H](CCCCN)C(=O)N[C@H](C(=O)N[C@@H](Cc1ccccc1)C(=O)N[C@H]1CSSC[C@@H](C(=O)O)NC(=O)[C@H](CCCCN)NC(=O)[C@H](CCCCN)NC(=O)[C@H](CO)NC(=O)[C@H]([C@@H](C)CC)NC(=O)[C@H](C(C)C)NC1=O)[C@@H](C)CC)C(C)C` [FLPAIVGAAAKFLPKIFCVISKKC], the MIC in [5] amounted to 15 µM (≈ 38.4 µg/mL); in [16] it was 3 µM (≈ 7.69 µg/mL).

With `CC(C)C[C@H](NC(=O)[C@H](CCCN=C(N)N)NC(=O)[C@H](Cc1c[nH]c2ccccc12)NC(=O)[C@H](CCCN=C(N)N)NC(=O)[C@@H](NC(=O)[C@H](Cc1c[nH]c2ccccc12)NC(=O)[C@H](Cc1c[nH]c2ccccc12)NC(=O)[C@H](CCCN=C(N)N)NC(=O)[C@H](CC(C)C)NC(=O)[C@H](Cc1c[nH]c2ccccc12)NC(=O)[C@@H](N)CCCN=C(N)N)[C@@H](C)O)C(=O)N[C@@H](CCCCN)C(N)=O` [RWLRWWTRWRLK], the MIC in experiment [1] was 4 µM (≈ 7.37 µg/mL); in experiment [7] it was 4 µM (≈ 7.37 µg/mL); in experiment [9], 2 µM (≈ 3.68 µg/mL); in experiment [2], 2 µM (≈ 3.68 µg/mL); in experiment [4], 4 µM (≈ 7.37 µg/mL); in experiment [5] it was 4 µM (≈ 7.37 µg/mL).

For the molecule `CC[C@H](C)[C@H](NC(=O)[C@H](CCCN=C(N)N)NC(=O)[C@H](CCCCN)NC(=O)[C@@H](NC(=O)[C@@H](NC(=O)[C@H](CCCN=C(N)N)NC(=O)[C@@H](N)CCCCN)[C@@H](C)CC)C(C)C)C(=O)N[C@@H](CCCCN)C(=O)N[C@@H](CCCCN)C(=O)N[C@@H](Cc1ccccc1)C(=O)N[C@@H](CC(C)C)C(=O)N[C@@H](CCCN=C(N)N)C(=O)O` [KRIVKRIKKFLR], the MIC in experiment [17] is at least 202 µM; in [7], 2.5 µM (≈ 3.96 µg/mL); in [18], at least 202 µM; in [9], at least 202 µM; in experiment [19] it was at least 101 µM; in [12], 1.25 µM (≈ 1.98 µg/mL). In addition, the MIC in experiment [15] was 2.5 µM (≈ 3.96 µg/mL); in experiment [5] it was 1.25 µM (≈ 1.98 µg/mL).

With `CC[C@H](C)[C@@H]1NC(=O)[C@H](C)NC(=O)[C@@H](NC(=O)[C@H](Cc2ccccc2)NC(=O)[C@@H](NC(=O)[C@H](CCCCN)NC(=O)[C@@H]2CCCN2C(=O)[C@H](CC(C)C)NC(=O)[C@H](Cc2ccccc2)NC(=O)[C@H](CC(N)=O)NC(=O)[C@H](C)NC(=O)[C@H](C)NC(=O)[C@H](CCSC)NC(=O)CNC(=O)[C@H](C)NC(=O)[C@@H](NC(=O)[C@H](Cc2ccccc2)NC(=O)[C@@H]2CCCN2C(=O)[C@H](CC(C)C)NC(=O)[C@@H](N)Cc2ccccc2)[C@@H](C)CC)[C@@H](C)CC)CSSC[C@@H](C(=O)O)NC(=O)[C@H](CCCCN)NC(=O)[C@H](CCCCN)NC(=O)[C@H](CO)NC1=O` [FLPFIAGMAANFLPKIFCAISKKC], the MIC in experiment [5] worked out at 19 µM (≈ 50 µg/mL); in [16] it was 8 µM (≈ 21 µg/mL).

For the origin of these results see DBAASP.
